Reference: patent US8796289B2 (AbbVie Inc., priority 2011, dated 2014)
pKi: −log10 of the molar value.

target: GST-tagged-Wee1 kinase (Homo sapiens, UniProt P30291); assay: Wee1 time-resolved fluorescence equilibrium binding assay (displacement of Oregon Green-labeled ATP-competitive kinase probe)
Method: Wee1 kinase was assayed using a time-resolved fluorescence equilibrium binding assay monitoring displacement of a rapidly reversible Oregon Green-labeled ATP-competitive kinase probe (N-(2-(2-(2-(4-(4-(5-chloro-4-(2-(1-hydroxycyclobutyl)thiazol-5-yl)-1H-pyrrolo[2,3-b]pyridin-2-yl)phenyl)piperazin-1-yl)ethoxy)ethoxy)ethyl)-2′,7′-difluoro-3′,6′-dihydroxy-3-oxo-3H-spiro[isobenzofuran-1,9′-xanthene]-5-carboxamide) by competitive Wee1 inhibitors.

Sequence of GST-tagged-Wee1 kinase (P30291 whole entry): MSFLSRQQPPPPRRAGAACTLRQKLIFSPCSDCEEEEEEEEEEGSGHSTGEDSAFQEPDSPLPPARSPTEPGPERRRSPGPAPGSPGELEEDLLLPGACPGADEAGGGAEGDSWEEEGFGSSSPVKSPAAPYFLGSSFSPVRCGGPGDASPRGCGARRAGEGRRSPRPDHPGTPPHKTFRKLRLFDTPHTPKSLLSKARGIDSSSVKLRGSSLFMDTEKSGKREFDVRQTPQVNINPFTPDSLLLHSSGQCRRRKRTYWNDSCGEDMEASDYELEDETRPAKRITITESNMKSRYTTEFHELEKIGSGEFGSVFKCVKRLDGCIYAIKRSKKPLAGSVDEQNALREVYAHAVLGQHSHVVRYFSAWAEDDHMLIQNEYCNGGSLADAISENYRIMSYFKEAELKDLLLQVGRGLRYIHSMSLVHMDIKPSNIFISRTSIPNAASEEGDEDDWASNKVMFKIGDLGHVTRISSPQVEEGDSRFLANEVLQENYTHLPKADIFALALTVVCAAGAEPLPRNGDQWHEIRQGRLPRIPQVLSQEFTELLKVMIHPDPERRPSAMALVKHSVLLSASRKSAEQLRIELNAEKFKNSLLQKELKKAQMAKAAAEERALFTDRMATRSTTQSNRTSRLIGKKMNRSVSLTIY

Row | pKi | Compound
1 | 9.49 | CCc1nn(-c2c(Cl)cccc2Cl)c(=O)c2cnc(Nc3ccc4c(c3)CCN(C)C4(C)C)nc12 [Example 460, 6-(2,6-dichlorophenyl)-8-ethyl-2-[(1,1,2-trimethyl-1,2,3,4-tetrahydroisoquinolin-6-yl)amino]pyrimido[4,5-d]pyridazin-5(6H)-one]
2 | 9.17 | CCc1nn(-c2c(Cl)cccc2Cl)c(=O)c2cnc(Nc3ccc4c(c3)C(C)(C)N(C)CC4)nc12 [Example 461, 6-(2,6-dichlorophenyl)-8-ethyl-2-[(1,1,2-trimethyl-1,2,3,4-tetrahydroisoquinolin-7-yl)amino]pyrimido[4,5-d]pyridazin-5(6H)-one]
3 | 9.02 | CCc1nn(-c2c(Cl)cccc2Cl)c(=O)c2cnc(Nc3ccc4c(c3)CNCC4(C)C)nc12 [Example 462, 6-(2,6-dichlorophenyl)-2-[(4,4-dimethyl-1,2,3,4-tetrahydroisoquinolin-7-yl)amino]-8-ethylpyrimido[4,5-d]pyridazin-5(6H)-one]
4 | 9.26 | CCc1nn(-c2c(Cl)cccc2Cl)c(=O)c2cnc(Nc3ccc4c(c3)C(C)(C)NCC4)nc12 [Example 463, 6-(2,6-dichlorophenyl)-2-[(1,1-dimethyl-1,2,3,4-tetrahydroisoquinolin-7-yl)amino]-8-ethylpyrimido[4,5-d]pyridazin-5(6H)-one]
5 | 8.80 | CCc1nn(-c2c(Cl)cccc2Cl)c(=O)c2cnc(Nc3ccc4c(c3)CNC(=O)C4)nc12 [Example 464, 6-(2,6-dichlorophenyl)-8-ethyl-2-[(3-oxo-1,2,3,4-tetrahydroisoquinolin-7-yl)amino]pyrimido[4,5-d]pyridazin-5(6H)-one]
6 | 9.06 | CCc1nn(-c2c(Cl)cccc2Cl)c(=O)c2cnc(Nc3ccc(CN4CCN(C)CC4)cc3)nc12 [Example 465, 6-(2,6-dichlorophenyl)-8-ethyl-2-({4-[(4-methylpiperazin-1-yl)methyl]phenyl}amino)pyrimido[4,5-d]pyridazin-5(6H)-one]
7 | 9.47 | CCc1nn(-c2c(Cl)cccc2Cl)c(=O)c2cnc(Nc3ccc4c(c3)CCNC4(C)C)nc12 [Example 466, 6-(2,6-dichlorophenyl)-2-[(1,1-dimethyl-1,2,3,4-tetrahydroisoquinolin-6-yl)amino]-8-ethylpyrimido[4,5-d]pyridazin-5(6H)-one]
8 | 9.33 | Cc1nn(-c2c(Cl)cccc2Cl)c(=O)c2cnc(Nc3ccc4c(c3)CNC(=O)C4)nc12 [Example 467, 6-(2,6-dichlorophenyl)-8-methyl-2-[(3-oxo-1,2,3,4-tetrahydroisoquinolin-7-yl)amino]pyrimido[4,5-d]pyridazin-5(6H)-one]
9 | 9.16 | CCc1nn(-c2c(Cl)cccc2Cl)c(=O)c2cnc(Nc3ccc(N4C[C@H]5C[C@@H]4CN5)cc3)nc12 [Example 468, 2-({4-[(1R,4R)-2,5-diazabicyclo[2.2.1]hept-2-yl]phenyl}amino)-6-(2,6-dichlorophenyl)-8-ethylpyrimido[4,5-d]pyridazin-5(6H)-one]
10 | 9.20 | CCc1nn(-c2c(Cl)cccc2Cl)c(=O)c2cnc(Nc3ccc(N4CCCN(C)CC4)c(C)c3)nc12 [Example 469, 6-(2,6-dichlorophenyl)-8-ethyl-2-{[3-methyl-4-(4-methyl-1,4-diazepan-1-yl)phenyl]amino}pyrimido[4,5-d]pyridazin-5(6H)-one]
11 | 9.00 | CCc1nn(-c2c(Cl)cccc2Cl)c(=O)c2cnc(Nc3ccc(N4CCNC(=O)C4)cc3)nc12 [Example 470, 6-(2,6-dichlorophenyl)-8-ethyl-2-{[4-(3-oxopiperazin-1-yl)phenyl]amino}pyrimido[4,5-d]pyridazin-5(6H)-one]
12 | 9.80 | Cc1nn(-c2c(Cl)cccc2Cl)c(=O)c2cnc(Nc3ccc4c(c3)CN(C)C4(C)C)nc12 [Example 471, 6-(2,6-dichlorophenyl)-8-methyl-2-[(1,1,2-trimethyl-2,3-dihydro-1H-isoindol-5-yl)amino]pyrimido[4,5-d]pyridazin-5(6H)-one]
